According to patent US7268129B2, “Fluorinated benzothiadiazine compounds” (Les Laboratoires Servier, priority 2005, dated 2007):
Read-outs that look alike come from different tables or passages of the source.

Legend:
[1] = system: AMPA receptors; experiment: Effect of compounds on the ionic current induced by AMPA in Xenopus oocytes; type: cell-based; conditions: Xenopus oocytes injected with rat cerebral cortex mRNA, (S)-AMPA 10 μM, voltage-clamp
Protocol: mRNA's are prepared from cerebral cortex of male Wistar rats by the caesium chloride/guanidium thiocyanate method. The poly (A^+) mRNA's are isolated using the PolyATtract mRNA Isolation systems kit (Promega, USA) and injected at a level of 50 ng per oocyte. The oocytes are incubated for 3 to 4 days at 18° C. to permit expression of the receptors and are then stored at 4° C. until used.
Electrophysiological recordings are carried out continuously at ambient temperature in a Plexiglass® chamber using OR2 medium (J. Exp. Zool., 1973, 184, 321-334) by the “voltage-clamp” method using two electrodes, with a third electrode placed in the bath serving as reference.
All the compounds and the AMPA are applied via the perfusion medium. (S)-AMPA is used in a concentration of 10 μM. The ionic current induced by the application of AMPA in the absence and presence of compounds is measured. For each compound studied, the concentration that doubles (EC2×) or quintuples (EC5×) the intensity of the current induced by AMPA alone (5 to 50 nA) is determined.

[2] = system: Wistar rats aged 3 months; experiment: Object recognition in adult Wistar rats aged 3 months; type: in vivo, rat; conditions: male Wistar rats aged 3 months; 0.03 to 1 mg/kg by the oral route 60 minutes before each session; 24 hours between sessions
From the text: The object recognition test in the Wistar rat was initially developed by ENNACEUR and DECACOUR (Behav. Brain Res., 1988, 31, 47-59). The test is based on the spontaneous exploratory activity of the animal and has the characteristics of episodic memory in humans. This memory test is sensitive to ageing (SCALL et al., Eur. J. Pharmacol., 1997, 325, 173-180) and to cholinergic dysfunctions (BARTOLINI et al., Pharm. Biochem. Behav. 1996, 53(2), 277-283) and is based on the differences in the exploration of 2 objects of fairly similar shape—one familiar, the other new. Prior to the test, the animals (male Wistar rats aged 3 months: CERJ, France) are habituated to the environment (an enclosure without an object). In the course of a first session, the rats are placed (3 minutes) in the enclosure, in which there are 2 identical objects. The duration of exploration is measured for each object. In the course of the second session (3 minutes), 24 hours later, 1 of the 2 objects is replaced by a new object. The duration of exploration is measured for each object. The assessment criterion is the difference, Delta, expressed in seconds, between the exploration times for the new object and for the familiar object in the course of the second session.

[3] = system: Wistar rats aged 17 months; experiment: Object recognition in Wistar rats aged 17 months; type: in vivo, rat; conditions: male Wistar rats aged 17 months; 0.1 mg/kg by the oral route; 1 hour between sessions
Protocol: In old rats there is a deficiency in memory retention in the object recognition test. Prior to the test, the animals (male Wistar rats aged 17 months: CERJ, France) are habituated to the environment (an enclosure without an object). In the course of a first session, the rats are placed (3 minutes) in the enclosure, in which there are 2 identical objects. The duration of exploration is measured for each object. In the course of the second session (3 minutes), 1 hour later, 1 of the 2 objects is replaced by a new object. The duration of exploration is measured for each object. The assessment criterion is the difference, Delta, expressed in seconds, between the exploration times for the new object and for the familiar object in the course of the second session.

`O=S1(=O)NCN(CCF)c2ccc(Cl)cc21` [Example 1, 7-Chloro-4-(2-fluoroethyl)-3,4-dihydro-2H-1,2,4-benzothiadiazine 1,1-dioxide] was tested, and the concentration multiplying AMPA current (EC2× / EC5×) ([1]; read-out: EC2× (concentration that doubles the intensity of the current induced by AMPA alone)) was 6.7 ± 1.4 µM, the concentration multiplying AMPA current (EC2× / EC5×) ([1]; read-out: EC5× (concentration that quintuples the intensity of the current induced by AMPA alone)) was 14.5 ± 0.6 µM and the “memory retention (object recognition, Delta of exploration times)” value [2] was “significantly improves memory retention”. The “age-related deficiency in memory retention (object recognition)” value [3] was “significantly opposes the age-related deficiency in memory retention”.
